The text below walks through data of US11655247B2, “Nanoluc suicide substrates” (PROMEGA CORPORATION, priority 2018, dated 2023).

SMILES strings stand for the structures. Entries after “also recorded” stand apart in the source; their conditions may differ.

The target in data set [1] is T1, NanoLuc (Oplophorus gracilirostris, UniProt Q9GV45, A31E/A60N/A81I/F95D/I117V/K70R/L54V/L99Q/M102K/N193R/P142E/Q151K/Q38R/Q45L/V71I/Y165I). Format: biochemical. Particulars: relative value, Furimazine set to 1; NanoLuc; read three minutes after substrate addition. The protocol:
Luminescence Assay Procedure:
Each compound to be screened was dissolved in DMSO (5 mM) and then further diluted to 100 μM in NANO-GLO® Luciferase Assay Buffer. Km values were determined by first serially diluting substrates two-fold into NANO-GLO® Luciferase Assay Buffer. Substrate dilutions were then combined with an equal volume of NanoLuc diluted to 4 ng/ml in TBS+0.01% BSA. Autoluminescence was measured by combining the 100 uM dilution of substrate with TBS+0.01% BSA. Luminescence and autoluminescence values were measured in a GloMax®-Multi+ luminometer three minutes after substrate addition. Signal decay was measured by combining equal volumes of 100 uM of substrate with 4 ng/ml NanoLuc in TBS+0.01% BSA and then samples were read in five minute intervals for two hours using a GloMax®-Multi+. Km was calculated using GraphPad Prism using nonlinear Michaelis-Menten regression. Signal half-life values were calculated using GraphPad Prism Non-linear decay, plateau set to zero.

For data set [2], the target named is T1, NanoLuc. Kind of data set: Inhibition of NanoLuc luciferase: blocking of furimazine luminescence after pre-incubation. Format: biochemical. Particulars: for Inhibition of NanoLuc (bioluminescence upon later furimazine addition): compound incubated with NanoLuc first, then furimazine (10 μM) added. How it is done: Compounds were also tested for their ability to block furimazine luminescence with NanoLuc. Typically, NanoLuc (0.4 μg/mL) in DMEM was incubated with either furimazine or test compound (50 μM) while monitoring RLU's with a GloMax® luminometer for 10-60 minutes. After the set time, the plate was removed from the instrument, and a dose of furimazine (10 μM) was added to the well containing the test compound and monitored for 10-60 minutes.
FIGS. 3A-B depicts inhibition of Nluc luciferase by furimazine-h. Furimazine-h (10 μM) was incubated with NanoLuc in NanoGlo or DMEM for 15 or 10 minutes, respectively. This bright signal rapidly degrades to a fraction of the signal observed in the furimazine positive control wells.
FIG. 9 depicts inhibition of Nluc luciferase by furimazine-h. This is a reverse addition experiment as compared to FIG. 3. Furimazine (10 μM) was incubated with NanoLuc in NanoGlo® buffer for 15 minutes.
JRW-0855 and JRW-1088 were incubated with NanoLuc in DMEM for 12 minutes. […] After the incubation period, 10 μM furimazine was added to the well.

Data set [3] addresses NanoBiT™ Binary luciferase (Oplophorus gracilirostris, UniProt Q9GV45, A31E/A60N/A81I/F95D/I117V/K70R/L54V/L99Q/M102K/P142E/Q151K/Q38R/Q45L/V71I/Y165I). In words: Inhibition of NanoBiT Binary luciferase (HiBiT + LgBiT). Format: biochemical. How it is done: Compounds were also tested for their ability to inhibit the NanoBiT™ Binary luciferase. HiBiT (SEQ ID NO: 3) and LgBiT (SEQ ID NO: 4) (two subunits of the NanoBiT™ luciferase) were incubated with furimazine or furimazine-h for 15 minutes. Following the incubation period, 10 μM furimazine was added. […] This signal rapidly degrades to a fraction of the signal observed in the furimazine positive control wells. Addition of furimazine to the furimazine positive control wells results in an increase in bioluminescence.

Data set [4] is described as follows: Stability in solution noted at preparation. Format: physicochemical. Particulars: note at preparation.
Data set [5] deals with NanoLuc-HaloTag (Nluc-HT). Kind of data set: Fluorescent labeling of NanoLuc-HaloTag, SDS/PAGE fluorescence imaging. Format: biochemical. Particulars: 0.5 μM protein, 50 μM label, 30 minutes, room temperature. How it is done: The efficiency of the NanoLuc suicide substrates was compared with a chloroalkane-FAM substrate with a fusion protein in which the HaloTag protein (SEQ ID NO: 5) is fused to either glutathione transferase (GST) or NanoLuc.
Either FAM chloroalkane or coelenterazine FAM substrate was incubated with glutathione transferase-HaloTag (GST-HT) or NanoLuc-HaloTag (Nluc-HT) fusions. The reactions were with 0.5 μM protein (GST-HT or Nluc-HT) and 50 μM of label (100× excess of label) and incubated for 30 minutes at room temperature. The sample titrations of each sample were then loaded to the SDS/PAGE gel. The fluorescence (473ex) (Cy2 filter set) was read and quantified. […] Results are quantified in FIG. 8B.

For data set [6], the system named is NanoLuc-HaloTag fusion protein. In words: Direct and two-step labeling with TCO-tetrazine or DBCO-azide pair, fluorescence imaging on SDS/PAGE gel. Format: biochemical. The note with it: for Two-step labeling with tetrazine-FAM (JRW-1577): second step tetrazine-FAM (JRW-1577). The protocol:
Similar to the previous example, NanoLuc-HaloTag protein was incubated with compounds to either directly label or label via the two-step process with FAM. Compounds were incubated with the NanoLuc-HaloTag fusion protein and analyzed by florescence imaging on SDS/PAGE gel.

T1 sequence (Q9GV45 28-196 with tags or gaps with the stated changes limits assumed): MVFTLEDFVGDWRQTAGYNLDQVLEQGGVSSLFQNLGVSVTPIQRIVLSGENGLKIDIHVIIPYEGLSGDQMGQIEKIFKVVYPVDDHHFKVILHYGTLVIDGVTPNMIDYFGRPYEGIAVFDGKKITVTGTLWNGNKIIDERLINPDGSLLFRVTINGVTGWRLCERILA
Chain of NanoBiT™ Binary luciferase (Q9GV45 other isoform, or with tags, fused parts or gaps with the stated changes): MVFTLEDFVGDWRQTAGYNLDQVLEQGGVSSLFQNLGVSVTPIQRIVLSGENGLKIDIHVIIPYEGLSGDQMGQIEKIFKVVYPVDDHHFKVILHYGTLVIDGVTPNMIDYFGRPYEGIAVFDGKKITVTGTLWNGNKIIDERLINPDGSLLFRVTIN

`O=c1c(Cc2ccco2)nc2c(Cc3ccccc3)[nH]c(-c3ccc(O)cc3)cn1-2` [Furimazine-h, 8-benzyl-2-(furan-2-ylmethyl)-6-(4-hydroxyphenyl)imidazo[1,2-a]pyrazin-3(7H)-one, reference compound]: at NanoLuc [1], the “RLU (at 100 μM)” value is 1. Moreover, the “Inhibition of NanoLuc (bioluminescence upon later furimazine addition)” value on NanoLuc [2] was “NanoLuc is inhibited; also recorded: exemplary suicide substrates of NanoLuc”. In addition, at NanoLuc [2] (furimazine (10 μM) with NanoLuc in NanoGlo buffer 15 minutes, then compound added), the “Inhibition of NanoLuc, reverse addition” value was “rapid signal decay”. For the same molecule, the “Inhibition of NanoBiT luciferase” value in data set [3] (15 minutes incubation, then 10 μM furimazine added) is “effectively inhibited”. The “Initial luminescent signal compared with furimazine” value in data set [3] (HiBiT and LgBiT incubated with compound) was “comparable to that of furimazine”.

With `CN(C)c1ccc2c(-c3cc(C(=O)NCCCCCCOc4ccc(Cc5nc6c(Cc7ccccc7)[nH]c(-c7ccc(O)cc7)cn-6c5=O)cc4F)ccc3C(=O)[O-])c3ccc(N(C)C)cc3[o+]c2c1` [JRW-0857, 4-((6-(4-((8-benzyl-6-(4-hydroxyphenyl)-3-oxo-3,7-dihydroimidazo[1,2-a]pyrazin-2-yl)methyl)-2-fluorophenoxy)hexyl)carbamoyl)-2-(3,6-bis(dimethylamino)xanthylium-9-yl)benzoate], on NanoLuc [1], the “RLU (at 100 μM)” value was determined as 0.00000029. Moreover, at NanoLuc [2], the “Inhibition of NanoLuc (bioluminescence upon later furimazine addition)” value is “did not inhibit NanoLuc”. Besides, the Stability in solution entry in data set [4] is listed as “instability in solution”.

As for `O=C(NCCCCCCCCOc1ccc(Cc2nc3c(Cc4ccccc4)[nH]c(-c4ccc(O)cc4)cn-3c2=O)cc1F)c1ccc(C(=O)[O-])c(-c2c3ccc(O)cc3[o+]c3cc(O)ccc23)c1` [JRW-0906, 4-((8-(4-((8-benzyl-6-(4-hydroxyphenyl)-3-oxo-3,7-dihydroimidazo[1,2-a]pyrazin-2-yl)methyl)-2-fluorophenoxy)octyl)carbamoyl)-2-(3,6-dihydroxyxanthylium-9-yl)benzoate], the “RLU (at 100 μM)” value on NanoLuc [1] is 0.036. Moreover, the “Inhibition of NanoLuc (bioluminescence upon later furimazine addition)” value on NanoLuc [2] was “exemplary suicide substrates of NanoLuc”. Also, the “Labeling efficiency relative to the chloroalkane-HT system” value in data set [5] is roughly 50%.

Turning to `CN(C)c1ccc2c(-c3cc(C(=O)NCCCCCCCCOc4ccc(Cc5nc6c(Cc7ccccc7)[nH]c(-c7ccc(O)cc7)cn-6c5=O)cc4F)ccc3C(=O)[O-])c3ccc(N(C)C)cc3[o+]c2c1` [JRW-0912, 4-((8-(4-((8-benzyl-6-(4-hydroxyphenyl)-3-oxo-3,7-dihydroimidazo[1,2-a]pyrazin-2-yl)methyl)-2-fluorophenoxy)octyl)carbamoyl)-2-(3,6-bis(dimethylamino)xanthylium-9-yl)benzoate], at NanoLuc [1], the “RLU (at 100 μM)” value is given as 0.000061. In addition, on NanoLuc [2], the “Inhibition of NanoLuc (bioluminescence upon later furimazine addition)” value is reported as “did not inhibit NanoLuc”. The Stability in solution entry in data set [4] is “instability in solution”.

Turning to `CN(C)c1ccc2c(-c3cc(C(=O)NCCOCCOCCC(=O)NCCCCCCCCOc4ccc(Cc5cc6c(Cc7ccccc7)[nH]c(-c7ccc(O)cc7)cn-6c5=O)cc4F)ccc3C(=O)[O-])c3ccc(N(C)C)cc3[o+]c2c1` [JRW-0927, 4-((2-(2-(3-((8-(4-((1-benzyl-3-(4-hydroxyphenyl)-6-oxo-2,6-dihydropyrrolo[1,2-a]pyrazin-7-yl)methyl)-2-fluorophenoxy)octyl)amino)-3-oxopropoxy)ethoxy)ethyl)carbamoyl)-2-(3,6-bis(dimethylamino)xanthylium-9-yl)benzoate], the “RLU (at 100 μM)” value on NanoLuc [1] was found to be 0.0000024. Further, the “Inhibition of NanoLuc (bioluminescence upon later furimazine addition)” value at NanoLuc [2] is listed as “did not inhibit NanoLuc”. Further, the Stability in solution entry in data set [4] is “instability in solution”.

In the case of `CC(=O)Oc1ccc2c(c1)Oc1cc(OC(C)=O)ccc1C21OC(=O)c2ccc(C(=O)NCCCCCCCCOc3ccc(Cc4nc5c(Cc6ccccc6)[nH]c(-c6ccc(O)cc6)cn-5c4=O)cc3F)cc21` [JRW-0972, 6-((8-(4-((8-benzyl-6-(4-hydroxyphenyl)-3-oxo-3,7-dihydroimidazo[1,2-a]pyrazin-2-yl)methyl)-2-fluorophenoxy)octyl)carbamoyl)-3-oxo-3H-spiro[isobenzofuran-1,9′-xanthene]-3′,6′-diyl diacetate], on NanoLuc [1], the “RLU (at 100 μM)” value is 0.00005. Further, the “Inhibition of NanoLuc (bioluminescence upon later furimazine addition)” value on NanoLuc [2] is given as “did not inhibit NanoLuc”. Besides, the Stability in solution result in data set [4] is “instability in solution”.

With `COc1cc2c(c(Cl)c1OC(C)=O)Oc1c(cc(OC)c(OC(C)=O)c1Cl)C21OC(=O)c2ccc(C(=O)NCCCCCCCCOc3ccc(Cc4nc5c(Cc6ccccc6)[nH]c(-c6ccc(O)cc6)cn-5c4=O)cc3F)cc21` [JRW-0986, 6-((8-(4-((8-benzyl-6-(4-hydroxyphenyl)-3-oxo-3,7-dihydroimidazo[1,2-a]pyrazin-2-yl)methyl)-2-fluorophenoxy)octyl)carbamoyl)-4′,5′-dichloro-2′,7′-dimethoxy-3-oxo-3H-spiro[isobenzofuran-1,9′-xanthene]-3′,6′-diyl diacetate], the “RLU (at 100 μM)” value on NanoLuc [1] stood at 0.00005. Further, the “Inhibition of NanoLuc (bioluminescence upon later furimazine addition)” value on NanoLuc [2] was “did not inhibit NanoLuc”. For the same molecule, the Stability in solution entry in data set [4] is on record as “instability in solution”.

With `O=c1ccc2cc(Cc3nc4c(Cc5ccccc5)[nH]c(-c5ccc(O)cc5)cn-4c3=O)ccc2o1` [JRW-0995, 8-benzyl-6-(4-hydroxyphenyl)-2-((2-oxo-2H-chromen-6-yl)methyl)imidazo[1,2-a]pyrazin-3(7H)-one], the “RLU (at 100 μM)” value at NanoLuc [1] amounted to 0.009. Further, at NanoLuc [2], the “Inhibition of NanoLuc (bioluminescence upon later furimazine addition)” value is given as “partial Nluc inhibitors”.

For the molecule `[N-]=[N+]=NCCCCCCCCOc1ccc(Cc2nc3c(Cc4ccccc4)[nH]c(-c4ccc(O)cc4)cn-3c2=O)cc1F` [JRW-1022, 2-(4-((8-azidooctyl)oxy)-3-fluorobenzyl)-8-benzyl-6-(4-hydroxyphenyl)imidazo[1,2-a]pyrazin-3(7H)-one], at NanoLuc [2], the “Inhibition of NanoLuc (bioluminescence upon later furimazine addition)” value was “partial Nluc inhibitors”. For the same molecule, in data set [6] (second step DBCO-FAM), the “Two-step labeling with DBCO-FAM” value is recorded as “two-step labeling occurs”.

With `O=C(CCC(=O)N1Cc2ccccc2C#Cc2ccccc21)NCCCCCCCCOc1ccc(Cc2nc3c(Cc4ccccc4)[nH]c(-c4ccc(O)cc4)cn-3c2=O)cc1F` [JRW-1549, N^1-(8-(4-((8-benzyl-6-(4-hydroxyphenyl)-3-oxo-3,7-dihydroimidazo[1,2-a]pyrazin-2-yl)methyl)-2-fluorophenoxy)octyl)-N^4-DBCO-succinamide], the “Two-step labeling with Azide-FAM” value in data set [6] (second step Azide-FAM) is given as “little to no labeling”.

In the case of `O=C(NCCCCCCCCOc1ccc(Cc2nc3c(Cc4ccccc4)[nH]c(-c4ccc(O)cc4)cn-3c2=O)cc1F)OC1CC/C=C/CCC1` (stereo not drawn) [JRW-1566, (E)-cyclooct-4-en-1-yl (8-(4-((8-benzyl-6-(4-hydroxyphenyl)-3-oxo-3,7-dihydroimidazo[1,2-a]pyrazin-2-yl)methyl)-2-fluorophenoxy)octyl)carbamate], the “Two-step labeling with tetrazine-FAM (JRW-1577)” value in data set [6] is listed as “two-step labeling of NanoLuc”.

As to `O=C(NCCOCCOCCCCCCCl)OC1CC/C=C/CCC1` (stereo not drawn) [JRW-1567, (E)-cyclooct-4-en-1-yl (2-(2-((6-chlorohexyl)oxy)ethoxy)ethyl)carbamate], the “Two-step labeling with tetrazine-FAM (JRW-1577)” value in data set [6] is “two-step labeling occurs”.
